Data: US20230202992A1, “PHARMACEUTICAL COMPOSITION FOR PREVENTING OR TREATING SMALL-CELL LUNG CANCER ASSOCIATED WITH RON MUTANTS AND METHOD USING SAME” (WELLMARKER BIO CO., LTD., priority 2020, published 2023)

How the values were obtained:
[1] = test system: H417 cell line (mRONΔ155) transplanted tumor; experiment: Tumor growth inhibition in H417 cell line transplanted animal model; assay type: in vivo, mouse; settings: BALB/c-nude mice transplanted with H417, 30 mpk, oral, once a day for 3 weeks; FIG. 2
Procedure: It was confirmed whether tumor growth was inhibited by administering WM-S1-030 synthesized in Example 1 above at a dose of 30 mpk to a mouse model transplanted with the H417 cell line, which is a small cell lung cancer cell line of a mutation RONΔ155 type. Specifically, 5-week-old female BALB/c-nude mice were purchased and acclimatized for 1 week. Thereafter, H417 (5×10^6 cells/mouse), a small cell lung cancer cell line of a mutation RONΔ155 type, was diluted in PBS (phosphate buffered saline), and 100 μL was injected subcutaneously into the right dorsal side of the mouse. When the size of the tumor reached about 100 mm^3, WM-S1-030 was orally administered. At this time, the group orally administered with the vehicle was used as a negative control. The drug was administered once a day for 3 weeks, and the tumor size and body weight were measured twice a week. After the drug administration was completed, the mice were euthanized, the tumor was extracted, and the weight was measured.

pTyr-mRON = experiment: Protein expression change in tumor tissue of H417 transplanted animal model, immunochemical staining; assay type: in vivo; settings: H417 transplanted mouse model, 3 mpk, 10 mpk, 30 mpk, FIG. 3
Procedure: (§1) WM-S1-030 synthesized in Example 1 above was administered at each concentration (3 mpk, 10 mpk, 30 mpk) to a mouse model transplanted with the H417 cell line, which is a small cell lung cancer cell line of a mutation RONΔ155 type, and then the tumor was extracted, and the expression changes of the proteins were analyzed by immunochemical staining.
(§2) Specifically, paraffin slides were prepared using tissues isolated from the sacrificed mice. The tissue sections were deparaffinized and rehydrated, immersed in the target recovery buffer 1×(ScyTek Laboratories, Cat #CBB999) and heated for 15 minutes to perform an antigen recovery process. After the reaction, the tissue sections were washed in Tris buffered saline-0.05% Tween 20 (TBS-T)(T&I, BTT-9310) for 5 minutes, and then the reaction was performed with a non-specific antibody reaction blocking reagent (vector, SP-5035) for 1 hour.
(§3) The tissue sections were cultured at 4° C. overnight with mRON (Abcam, ab52927, 1:50), pTyr-mRON (Mybioscience, MBS462024, 1:100), cleaved caspase-3 (Asp175XR&D Systems, MAB835, 1:50) and then washed with TBS-T for 5 minutes, and then endogenous peroxidase activity was blocked using a peroxidase blocking reagent (Cellmarque, 925B-05). Thereafter, the tissue sections were washed with TBS-T for 5 minutes and then incubated with a rabbit secondary antibody (vector, PK-6101) at room temperature for 1 hour. […]

cleaved caspase-3 = experiment: as above; assay type: in vivo; settings: H417 transplanted mouse model, 3 mpk, 10 mpk, 30 mpk, FIG. 3
Procedure: as §1, §2, §3

[2] = test system: H417 cell line (small cell lung cancer cell line of a mutation RONΔ155 type); experiment: Cell killing efficacy in small cell lung cancer cell line (PI staining, FACS); assay type: cell-based; settings: H417 cells (mRONΔ155), 1 μM, 72 hours, propidium iodide, FIG. 1
Procedure: The H417 cell line, which is a small cell lung cancer cell line of a mutation RONΔ155 type, was counted, and 2×10^5 cells were seeded in a 60 mm dish, respectively, and 24 hours later, treated with 1 μM of each of the compounds synthesized in Example 1 (WM-S1-030), Example 2, Example 3, Example 4, and Example 5 for 72 hours. As a positive control, a known RON inhibitor, BMS-777607 compound (1 μM), was used. BMS-777607 is N-{4-[(2-amino-3-chloro-4-pyridinyl)oxy]-3-fluorophenyl}-4-ethoxy-1-(4-fluorophenyl)-2-oxo-1,2-dihydro-3-pyridinecarboxamide, which is compound 1 disclosed in U.S. Pat. No. 8,536,200 B2. BMS-777607 is a well known RON inhibitor.
After 72 hours, all of the medium was transferred to a 15 mL conical tube and washed once with 1×PBS (phosphate buffered saline), and then the cells were harvested. Thereafter, the supernatant was removed by centrifugation at 1,000 rpm for 3 minutes, and propidium iodide (PI) was diluted in a FACS (Fluorescence-Activated Cell Sorting) buffer (PBS+2% FBS) at a ratio of 1:1000. The prepared buffer was added adequately depending on the number of cells, and then it was transferred to a FACS tube and reacted for 10 minutes. Thereafter, it was measured using a cytometer (FACS Analyzer).

Row | SMILES | tumor growth [1] | expression of pTyr-mRON (pTyr-mRON) | expression of cleaved caspase-3 (cleaved caspase-3) | cell death (cell killing efficacy) [2]
1 | CCOc1ccn(-c2ccc(F)cc2)c(=O)c1C(=O)Nc1ccc(Oc2ccnc3cc(-c4ccc(CN5CCOCC5)cn4)sc23)c(F)c1.Cl [Example 1, 4-ethoxy-N-[3-fluoro-4-({2-[5-(morpholinomethyl)pyridin-2-yl]thieno[3,2-b]pyridin-7-yl}oxy)phenyl]-1-(4-fluorophenyl)-2-oxo-1,2-dihydropyridine-3-carboxamide hydrochloride] | significantly inhibited | decreased | induced | 
2 | CCOc1ccn(-c2ccc(F)cc2)c(=O)c1C(=O)Nc1ccc(Oc2ccnc(N)c2Cl)c(F)c1 [BMS-777607, N-{4-[(2-amino-3-chloro-4-pyridinyl)oxy]-3-fluorophenyl}-4-ethoxy-1-(4-fluorophenyl)-2-oxo-1,2-dihydro-3-pyridinecarboxamide] |  |  |  | low
